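Grown in 96-well plates, cells were treated for 48 hours with each compound at five concentrations. Insufficient inhibition: endpoint recorded as highest concentration tested. GI50 is the concentration that inhibits growth by half.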 Activity calls are given as the source filed them. Cut-off read from the data, not from the text of the source: active = GI50 up to about 1.1 µM and inactive = higher.
Key:
Test in all cases: NCI-60 cell line screen, 48 h
UACC-257 = system: UACC-257
OVCAR-8 = system: OVCAR-8
NCI-H23 = system: NCI-H23
Hs-578T = system: Hs-578T
NCI-H226 = system: NCI-H226
MDA-MB-435 = system: MDA-MB-435
SK-MEL-2 = system: SK-MEL-2
MDA-N = system: MDA-N
CCRF-CEM = system: CCRF-CEM
SK-OV-3 = system: SK-OV-3
RPMI-8226 = system: RPMI-8226
K562 = system: K562
BT-549 = system: BT-549
MDA-MB-231 = system: MDA-MB-231
LOX IMVI = system: LOX IMVI
SF-539 = system: SF-539
OVCAR-4 = system: OVCAR-4
RXF 393 = system: RXF 393
HL-60 = system: HL-60
TK-10 = system: TK-10
HT-29 = system: HT-29
KM12 = system: KM12
ACHN = system: ACHN
HOP-92 = system: HOP-92
SF-268 = system: SF-268
NCI/ADR-RES = system: NCI/ADR-RES
NCI-H522 = system: NCI-H522
IGROV-1 = system: IGROV-1
EKVX = system: EKVX
DU-145 = system: DU-145
OVCAR-5 = system: OVCAR-5
SK-MEL-28 = system: SK-MEL-28
SR = system: SR
786-0 = system: 786-0
MOLT-4 = system: MOLT-4
SN12C = system: SN12C
UO-31 = system: UO-31
SK-MEL-5 = system: SK-MEL-5
A498 = system: A498
T47D = system: T47D
PC-3 = system: PC-3
SNB-19 = system: SNB-19
MCF7 = system: MCF7
M14 = system: M14
SF-295 = system: SF-295
A549 = system: A549
Malme-3M = system: Malme-3M
U-251 = system: U-251
NCI-H460 = system: NCI-H460
SNB-75 = system: SNB-75
SW-620 = system: SW-620
CAKI-1 = system: CAKI-1
HOP-62 = system: HOP-62
COLO 205 = system: COLO 205
OVCAR-3 = system: OVCAR-3
HCT-15 = system: HCT-15
UACC-62 = system: UACC-62
HCT-116 = system: HCT-116
HCC 2998 = system: HCC 2998

`NS(=O)(=O)c1ccc(/N=N/c2cnc(O)c(O)c2)cc1` was tested, and the GI50 (UACC-257) was 23 µM (inactive), the GI50 (OVCAR-8) was 76.2 µM (inactive) and the GI50 (NCI-H23) was 64 µM (inactive). The GI50 (Hs-578T) was 66.1 µM (inactive), the GI50 (NCI-H226) was > 100 µM (inactive) and the GI50 (MDA-MB-435) was > 100 µM (inactive). The GI50 (SK-MEL-2) was 52 µM (inactive), the GI50 (MDA-N) was > 100 µM (inactive) and the GI50 (CCRF-CEM) was 19.6 µM (inactive). For the same compound, the GI50 (SK-OV-3) was > 100 µM (inactive), the GI50 (RPMI-8226) was > 100 µM (inactive) and the GI50 (K562) was > 100 µM (inactive). The GI50 (BT-549) was 42.5 µM (inactive), the GI50 (MDA-MB-231) was > 100 µM (inactive) and the GI50 (LOX IMVI) was 91.2 µM (inactive). The GI50 (SF-539) was 67.5 µM (inactive), the GI50 (OVCAR-4) was 50 µM (inactive) and the GI50 (RXF 393) was 95.3 µM (inactive). For the same compound, the GI50 (HL-60) was > 100 µM (inactive), the GI50 (TK-10) was > 100 µM (inactive) and the GI50 (HT-29) was > 100 µM (inactive). For the same compound, the GI50 (KM12) was 96.8 µM (inactive), the GI50 (ACHN) was > 100 µM (inactive) and the GI50 (HOP-92) was 81.7 µM (inactive). The GI50 (SF-268) was 43.2 µM (inactive), the GI50 (NCI/ADR-RES) was 94.2 µM (inactive) and the GI50 (NCI-H522) was 14.1 µM (inactive). The GI50 (IGROV-1) was > 100 µM (inactive), the GI50 (EKVX) was > 100 µM (inactive) and the GI50 (DU-145) was 78.2 µM (inactive). For the same compound, the GI50 (OVCAR-5) was > 100 µM (inactive), the GI50 (SK-MEL-28) was > 100 µM (inactive) and the GI50 (SR) was 29.6 µM (inactive). The GI50 (786-0) was > 100 µM (inactive), the GI50 (MOLT-4) was 54 µM (inactive) and the GI50 (SN12C) was 51.9 µM (inactive). The GI50 (UO-31) was > 100 µM (inactive), the GI50 (SK-MEL-5) was 78.2 µM (inactive) and the GI50 (A498) was > 100 µM (inactive). For the same compound, the GI50 (T47D) was 85.7 µM (inactive), the GI50 (PC-3) was > 100 µM (inactive) and the GI50 (SNB-19) was 52.4 µM (inactive). For the same compound, the GI50 (MCF7) was 44.2 µM (inactive), the GI50 (M14) was 81.3 µM (inactive) and the GI50 (SF-295) was > 100 µM (inactive). For the same compound, the GI50 (A549) was > 100 µM (inactive), the GI50 (Malme-3M) was 29.8 µM (inactive) and the GI50 (U-251) was 20.8 µM (inactive). The GI50 (NCI-H460) was > 100 µM (inactive), the GI50 (SNB-75) was 47.4 µM (inactive) and the GI50 (SW-620) was > 100 µM (inactive). For the same compound, the GI50 (CAKI-1) was > 100 µM (inactive), the GI50 (HOP-62) was > 100 µM (inactive) and the GI50 (COLO 205) was 95.3 µM (inactive). For the same compound, the GI50 (OVCAR-3) was 28.8 µM (inactive), the GI50 (HCT-15) was greater than 100 µM and the GI50 (UACC-62) was 43.1 µM (inactive). The GI50 (HCT-116) was > 100 µM (inactive).

`CCCCc1ccc(-n2sc3ncc(C)cc3c2=O)cc1` was tested, and the GI50 (OVCAR-8) was 21 µM (inactive), the GI50 (NCI-H23) was 30.1 µM (inactive) and the GI50 (Hs-578T) was > 100 µM (inactive). The GI50 (NCI-H226) was > 100 µM (inactive), the GI50 (MDA-MB-435) was 79.8 µM (inactive) and the GI50 (SK-MEL-2) was 10.6 µM (inactive). The GI50 (MDA-N) was 51.5 µM (inactive), the GI50 (CCRF-CEM) was 8.18 µM (inactive) and the GI50 (SK-OV-3) was 28.6 µM (inactive). For the same compound, the GI50 (RPMI-8226) was 22 µM (inactive), the GI50 (K562) was 43.9 µM (inactive) and the GI50 (BT-549) was 19.1 µM (inactive). For the same compound, the GI50 (MDA-MB-231) was 25.6 µM (inactive), the GI50 (LOX IMVI) was 18.2 µM (inactive) and the GI50 (OVCAR-4) was 33.7 µM (inactive). For the same compound, the GI50 (RXF 393) was 27.2 µM (inactive), the GI50 (HL-60) was 8.57 µM (inactive) and the GI50 (TK-10) was 29.1 µM (inactive). For the same compound, the GI50 (KM12) was 22.7 µM (inactive), the GI50 (ACHN) was 30.9 µM (inactive) and the GI50 (HOP-92) was 26.8 µM (inactive). The GI50 (NCI/ADR-RES) was 27.6 µM (inactive), the GI50 (NCI-H522) was 16.3 µM (inactive) and the GI50 (IGROV-1) was 21.7 µM (inactive). For the same compound, the GI50 (EKVX) was 19.5 µM (inactive), the GI50 (DU-145) was 30.3 µM (inactive) and the GI50 (OVCAR-5) was 22.7 µM (inactive). For the same compound, the GI50 (SK-MEL-28) was 96.2 µM (inactive), the GI50 (SR) was 75.5 µM (inactive) and the GI50 (786-0) was 34.9 µM (inactive). The GI50 (MOLT-4) was 25.2 µM (inactive), the GI50 (SN12C) was 21.9 µM (inactive) and the GI50 (UO-31) was 6.1 µM (inactive). For the same compound, the GI50 (HCC 2998) was 37.5 µM (inactive), the GI50 (SK-MEL-5) was 21.5 µM (inactive) and the GI50 (T47D) was 22.6 µM (inactive). For the same compound, the GI50 (PC-3) was 15 µM (inactive), the GI50 (SNB-19) was > 100 µM (inactive) and the GI50 (MCF7) was 19.5 µM (inactive). For the same compound, the GI50 (M14) was 13.4 µM (inactive), the GI50 (SF-295) was 45.2 µM (inactive) and the GI50 (A549) was 20.6 µM (inactive). The GI50 (Malme-3M) was 25.8 µM (inactive), the GI50 (U-251) was 32.7 µM (inactive) and the GI50 (NCI-H460) was 12.6 µM (inactive). The GI50 (SNB-75) was 42.9 µM (inactive), the GI50 (SW-620) was 27.4 µM (inactive) and the GI50 (HOP-62) was 30.3 µM (inactive). For the same compound, the GI50 (COLO 205) was 20.5 µM (inactive), the GI50 (OVCAR-3) was 18.5 µM (inactive) and the GI50 (HCT-15) was 16.4 µM. The GI50 (UACC-62) was 32.4 µM (inactive) and the GI50 (HCT-116) was 78 µM (inactive).

With `O=C1[C@@H]2Cc3c([nH]c4ccccc34)C(C3CCCCC3)N2C(=O)[C@@H]2CCCN12` (stereo not given in full) the GI50 (UACC-257) was 29.2 µM (inactive), the GI50 (OVCAR-8) was 36.7 µM (inactive) and the GI50 (NCI-H23) was 38.1 µM (inactive). For the same compound, the GI50 (Hs-578T) was 27.9 µM (inactive), the GI50 (NCI-H226) was 43.1 µM (inactive) and the GI50 (MDA-MB-435) was 34.2 µM (inactive). The GI50 (SK-MEL-2) was 20 µM (inactive), the GI50 (MDA-N) was 30.2 µM (inactive) and the GI50 (SK-OV-3) was 46.9 µM (inactive). For the same compound, the GI50 (RPMI-8226) was 21.3 µM (inactive), the GI50 (K562) was 37.2 µM (inactive) and the GI50 (BT-549) was 30.6 µM (inactive). For the same compound, the GI50 (MDA-MB-231) was 21.1 µM (inactive), the GI50 (LOX IMVI) was 28.3 µM (inactive) and the GI50 (OVCAR-4) was 35.2 µM (inactive). The GI50 (RXF 393) was 29.9 µM (inactive), the GI50 (HL-60) was 27.3 µM (inactive) and the GI50 (TK-10) was 35.6 µM (inactive). For the same compound, the GI50 (HT-29) was 28.5 µM (inactive), the GI50 (KM12) was 23.3 µM (inactive) and the GI50 (ACHN) was 28.9 µM (inactive). For the same compound, the GI50 (HOP-92) was 29.6 µM (inactive), the GI50 (SF-268) was 33.5 µM (inactive) and the GI50 (NCI/ADR-RES) was 22 µM (inactive). For the same compound, the GI50 (NCI-H522) was 23 µM (inactive), the GI50 (IGROV-1) was 29.6 µM (inactive) and the GI50 (EKVX) was 33.5 µM (inactive). The GI50 (DU-145) was 55.5 µM (inactive), the GI50 (OVCAR-5) was 37.8 µM (inactive) and the GI50 (SK-MEL-28) was 50.2 µM (inactive). For the same compound, the GI50 (SR) was 19.9 µM (inactive), the GI50 (786-0) was 27.8 µM (inactive) and the GI50 (MOLT-4) was 23 µM (inactive). For the same compound, the GI50 (SN12C) was 26.5 µM (inactive), the GI50 (UO-31) was 32.3 µM (inactive) and the GI50 (SK-MEL-5) was 17.7 µM (inactive). For the same compound, the GI50 (A498) was 37.8 µM (inactive), the GI50 (T47D) was 60 µM (inactive) and the GI50 (PC-3) was 22.3 µM (inactive). For the same compound, the GI50 (SNB-19) was 39.9 µM (inactive), the GI50 (MCF7) was 30.4 µM (inactive) and the GI50 (M14) was 37.8 µM (inactive). The GI50 (SF-295) was 21.1 µM (inactive), the GI50 (A549) was 33.1 µM (inactive) and the GI50 (Malme-3M) was 18.9 µM (inactive). The GI50 (U-251) was 33.8 µM (inactive), the GI50 (SW-620) was 41.2 µM (inactive) and the GI50 (CAKI-1) was 31.7 µM (inactive). The GI50 (HOP-62) was 31.4 µM (inactive), the GI50 (COLO 205) was 21.5 µM (inactive) and the GI50 (OVCAR-3) was 20.4 µM (inactive). The GI50 (HCT-15) was 33.4 µM, the GI50 (UACC-62) was 17.3 µM (inactive) and the GI50 (HCT-116) was 27.5 µM (inactive).
